For data set [1], the system named is locally advanced or metastatic breast cancer. Nature of the data set: Clinical trial of CCI-779 plus letrozole: preliminary tumor responses (RECIST). Conditions: for pts with SD 24 wk: CCI pts on HD schedules, letrozole-alone pts; for partial responses (RECIST): evaluable pts: CCI n=13 (responders on HD schedules), letrozole alone n=6; for stable disease (RECIST): evaluable pts: CCI n=13, letrozole alone n=6. In kind it is in vivo, postmenopausal women. The procedure: (§1) The combination of CCI-779 and letrozole in postmenopausal women with locally advanced or metastatic breast cancer is being evaluated in this clinical trial.
(§2) Randomization is in a 1:1:1 ratio (˜30 evaluable pts/arm), letrozole alone: letrozole with CCI daily (CCI daily arm): letrozole with CCI daily for 5 days every 2 weeks (CCI intermittent arm). All pts receive 2.5 mg letrozole daily.
(§3) Thus, the protocol was amended and doses were reduced to low dose (LD) schedules, 10 mg CCI daily and 30 mg CCI intermittent. As of 1 Dec.

The nature of data set [2]: Clinical trial of CCI-779 plus letrozole: safety/tolerability. The procedure: as §1, §2, §3
In data set [3] the test system is histologically diverse tumor cells. The conditions noted are these: cited from earlier work.
Data set [4] concerns human glioblastoma cell line. The conditions noted are these: in vitro; cited from earlier work.
The test system of data set [5] is human tumor xenografts. The conditions noted are these: nude mice, cited from earlier work.
The nature of data set [6]: Stability of CCI-779 in parenteral cosolvent formulation. Format: physicochemical. The conditions noted are these: citric acid at a concentration of less than 0.01% w/v. The source says: In this embodiment, the stability of CCI-779 in parenterally acceptable alcoholic cosolvents is enhanced by addition of an antioxidant to the formulation. Acceptable antioxidants include, but are not limited to, citric acid, d,l-α-tocopherol, BHA, BHT, monothioglycerol, ascorbic acid, propyl gallate, and mixtures thereof. Generally, the parenteral formulations useful in this embodiment of the invention will contain an antioxidant component(s) in a concentration ranging from 0.001% to 1% w/v, or 0.01% to 0.5% w/v, of the cosolvent concentrate, although lower or higher concentrations may be desired. Of the antioxidants, d,l-α-tocopherol is particularly desirable and is used at a concentration of 0.01 to 0.1% w/v with a preferred concentration of 0.075% w/v of the cosolvent concentrate.
Examples of such chelating agents include, e.g., citric acid, acetic acid, and ascorbic acid (which may function as both a classic antioxidant and a chelating agent in the present formulations). Other chelating agents include such materials as are capable of binding metal ions in solution, such as ethylene diamine tetra acetic acid (EDTA), its salts, or amino acids such as glycine are capable of enhancing the stability of CCI-779. […] Optimal concentrations for the selected antioxidant(s) can be readily determined by one of skill in the art, based upon the information provided herein.

On to `N#Cc1ccc(C(c2ccc(C#N)cc2)n2cncn2)cc1` [letrozole, reference compound], for which, in data set [1], the “pts with SD 24 wk” value is reported as 1 pts, the “partial responses (RECIST)” value was 2 pts and the “stable disease (RECIST)” value was 4 pts. Also, the “grade 3-4 toxicities” value in data set [2] (letrozole alone 2.5 mg daily, 12 pts) is recorded as “No grade 3-4 toxicities”.
Consider `CO[C@H]1C[C@@H]2CC[C@@H](C)[C@@](O)(O2)C(=O)C(=O)N2CCCC[C@H]2C(=O)O[C@H]([C@H](C)C[C@@H]2CC[C@@H](OC(=O)C(C)(CO)CO)[C@H](OC)C2)CC(=O)[C@H](C)/C=C(\C)[C@@H](O)[C@@H](OC)C(=O)[C@H](C)C[C@H](C)/C=C/C=C/C=C/1C` [CCI-779, Rapamycin 42-ester with 3-hydroxy-2-(hydroxymethyl)-2-methylpropionic acid], for which the “stable disease, pts on HD schedules” value in data set [1] (CCI HD schedules (25 mg daily / 75 mg intermittent) with letrozole) is recorded as 6 pts. Also, in data set [1] (CCI LD schedules (10 mg daily / 30 mg intermittent) with letrozole), the “stable disease, pts on LD schedules” value is given as 3 pts. In data set [1], the “pts with SD 24 wk” value is listed as 4 pts, the “partial responses (RECIST)” value is 3 pts and the “stable disease (RECIST)” value was 9 pts. Further, the “complete response (RECIST)” value in data set [1] (evaluable CCI pts n=13, responder on HD schedule) is listed as 1 pts. Moreover, the “growth of tumor cells in vitro” value in data set [3] (CNS cancer, leukemia (T-cell), breast cancer, prostate cancer and melanoma lines among the most sensitive) was “inhibit the growth”. For the same compound, the cell cycle effect entry in data set [3] (in vitro tumor cells) is given as “arrested cells in the G1 phase”. In addition, the “growth factor (platelet-derived)-induced stimulation of glioblastoma cells” value in data set [4] is listed as “markedly suppressed”. Moreover, the “activity in orthotopic glioma model” value in data set [5] was “active”. Further, the “activity against human tumor xenografts” value in data set [5] (diverse histological types, gliomas particularly sensitive) is “has activity against human tumor xenografts”. Further, the “growth of human pancreatic tumors and breast cancer lines in vivo” value in data set [5] (several human pancreatic tumors, one of two breast cancer lines) was “inhibited”. For the same compound, in data set [6], the “stability of CCI-779 in formulation” value is “enhanced the stability”. The “patients with toxicity that resulted in dose delay/reduction or discontinuation” value in data set [2] (female, human, in vivo) is reported as 3 patients.
